Values joined by “and” are separate entries in the source; they are usually repeats but may differ in a detail not shown here. Identical values can stand only once.
Experiments:
Assay type in all cases: cell-based
[1] = system: Human cervical carcinoma Hela; assay: MTT growth inhibition on human cervical carcinoma Hela; settings: concentrations same as Example 1
[2] = system: Human breast cancer cell lines Bcap-37; assay: MTT growth inhibition on human breast cancer cell lines Bcap-37; settings: concentrations same as Example 1
Description: (§1) Human hepatoma cells BEL-7402 and human lung cancer cells PG provided by Institute of Biochemistry and Cell Biology, SIBS, CAS were cultured in the culture medium RPMI 1640 comprising 10% fetal bovine serum. The cells in the exponential growth phase were collected, digested with 0.25% trypsin, inoculated to a 96-well plate with each well having 3×10^3 cells, and then cultured in an incubator having 5% CO2 at 37° C. for 24 hours. Each experimental group was provided with 8 wells. 60 μL of a nucleoside solution having a total concentration of 10.0 mmol/L was added to each well, and the culture medium was replenished to ensure each well to have a volume of 200 μL. The control group was administered with 5-FU having the same concentration as the nucleoside solution. The obtained cells were diluted with serum-free medium and filtered with sterile microporous membrane having an aperture size of 0.22 μm. 48 hours later, cell morphology was observed and photographed by an inverted microscope. Thereafter, 20 μL of MTT solution having a concentration of 5 mg/mL was added to each well of the 96-well plate, which was further cultured in the incubator having 5% CO2 at 37° C. for 4 hours. After the culture, the supernate in the wells was removed. 150 μL of DMSO was added to each well. The 96-well plate was shaken for 10 minutes to facilitate the dissolution of the crystals. An automatic microplate reader (Thermo, Multiskan MK3) was employed to measure the absorbancy at 570 nm. Each experimental group was provided with 8 wells, and each experiment was repeated for three times. Table 1 lists the average value of the three experiments.
(§2) Survival rate of tumor cells (%)=measured OD value of experimental wells/OD value of wells of control group
(§3) Growth inhibition rate of tumor cells=100%−Survival rate of tumor cells (%)
(§4) The experimental groups and the control group were administered with different nucleosides or a combination thereof, as listed in Table 5. Human breast cancer cell lines Bcap-37 was provided by the Institute of Basic Medical Sciences (IBMS) of the Chinese Academy of Medical Sciences (CAMS). The experimental method was the same as that in Example 1. The concentrations of the nucleoside combination, the single nucleoside, and 5-FU are all the same as that in Example 1.

[3] = system: human lung cancer cells PG; assay: MTT growth inhibition on human lung cancer cells PG; settings: 48 hours, 60 μL of 10.0 mmol/L solution per 200 μL well, average of three experiments; for inhibition at 10000 µM (stock): Homo sapiens, read-out: Growth inhibition rate (%) on tumor cells PG
Description: as §1, §2, §3

[4] = system: Human hepatoma cells BEL-7402; assay: MTT growth inhibition on human hepatoma cells BEL-7402; settings: for Growth inhibition rate (%) on Bel-7402: Example 3, concentrations same as Example 1; for inhibition at 10000 µM (stock): Homo sapiens, Bel-7402, read-out: Growth inhibition rate (%) on tumor cells Bel-7402
Description: as §1, with “48 hours later, cell morphology was observed and photographed by an inverted microscope.” left out
as §2, §3
1. Experimental method: The experimental groups and the control group were administered with different nucleosides or a combination thereof, as listed in Table 3. Human hepatoma cells Bel-7402 was provided by Institute of Biochemistry and Cell Biology, SIBS, CAS. The experimental method was the same as that in Example 1. The concentrations of the nucleoside combination, the single nucleoside, and 5-FU are all the same as that in Example 1.

[5] = system: Human colon cancer cell line HT-29; assay: MTT growth inhibition on human colon cancer cell line HT-29; settings: 48 hours; concentrations same as Example 1 (total 10.0 mmol/L solution, 60 μL per 200 μL well)
Description: as §1, §2, §3
as §4, with “2.” for “5.”, “colon” for “breast”, “line HT-29” for “lines Bcap-37”, “deoxynucleoside,” for “nucleoside,”

[6] = system: Human pancreatic cancer cell line PANC-1; assay: MTT growth inhibition on human pancreatic cancer cell line PANC-1; settings: different dosage ratios of dA, dG, C, total concentration same as Example 1
[7] = system: Human gastric cancer cell lines BGC823; assay: MTT growth inhibition on human gastric cancer cell lines BGC823; settings: concentrations same as Example 1
Description: as §1, with “48 hours later, cell morphology was observed and photographed by an inverted microscope.” left out
as §2, §3
as §4, with “4.” for “5.”, “gastric” for “breast”, “BGC823” for “Bcap-37”, “deoxynucleoside,” for “nucleoside,”

[8] = system: Human glioma cell line SHG-44; assay: MTT growth inhibition on human glioma cell line SHG-44; settings: concentrations same as Example 1
Description: as §1, with “After the culture, the supernate in the wells was removed. 150 μL of DMSO was added to each well. The 96-well plate was shaken for 10 minutes to facilitate the dissolution of the crystals.” left out, “Each experimental group was provided with 8 wells, and each experiment was repeated for three times. Table 1 lists the average value of the three experiments.” left out
Survival rate of tumor cells (%)=measured OD value of experimental wells/OD value of wells of control group […]

[9] = 48 hours, 60 μL of 10.0 mmol/L solution per 200 μL well, MTT, average of three experiments

| Structure (SMILES) | Growth inhibition rate (%) on Bcap-37 ([2]; 48 hours) | Growth inhibition rate (%) on Bcap-37 ([2]; 72 hours) | Growth inhibition rate (%) on HT-29 [5] | Growth inhibition rate (%) on BGC823 ([7]; 48 hours) | Growth inhibition rate (%) on BGC823 ([7]; 72 hours) | inhibition at 10000 µM (stock) [3] | inhibition at 10000 µM (stock) [4, 9] | other results |
| --- | --- | --- | --- | --- | --- | --- | --- | --- |
| O=c1[nH]cc(F)c(=O)[nH]1 [5-FU, reference compound] | 92% | 95% | 96% and 95% and 91% and 93% | 91% | 95% |  |  | Growth inhibition rate (%) on Hela ([1]; 48 hours): 92%; Growth inhibition rate (%) on Hela ([1]; 72 hours): 96%; Growth inhibition rate (%) on tumor cells PG [3]: 90%; Growth inhibition rate (%) on tumor cells Bel-7402 [4, 9]: 91%; Growth inhibition rate (%) on Bel-7402 ([4]; 48 hours): 91%; Growth inhibition rate (%) on Bel-7402 ([4]; 72 hours): 95%; Growth inhibition rate (%) on human pancreatic cancer cell line PANC-1 ([6]; 48 hours): 93%; Growth inhibition rate (%) on human pancreatic cancer cell line PANC-1 ([6]; 72 hours): 95%; Growth inhibition rate (%) on SHG-44 ([8]; 48 hours): 91%; Growth inhibition rate (%) on SHG-44 ([8]; 72 hours): 96% |
| Nc1ncnc2c1ncn2[C@@H]1O[C@H](CO)[C@@H](O)[C@H]1O [A, adenosine] |  |  |  |  |  | 84% | 86% |  |
| Nc1ccn([C@@H]2O[C@H](CO)[C@@H](O)[C@H]2O)c(=O)n1 [C, cytidine] | 65% | 71% |  |  |  | 53% | 65% |  |
| Nc1nc2c(ncn2[C@@H]2O[C@H](CO)[C@@H](O)[C@H]2O)c(=O)[nH]1 [G, guanosine] |  |  |  |  |  | 87% | 83% |  |
| Cc1cn([C@H]2C[C@H](O)[C@@H](CO)O2)c(=O)[nH]c1=O [T, thymidine] |  |  | 85% |  |  | 88% | 87% |  |
| O=c1ccn([C@@H]2O[C@H](CO)[C@@H](O)[C@H]2O)c(=O)[nH]1 [U, uridine] | 58% | 67% |  |  |  | 52% | 49% |  |
| Nc1ncnc2c1ncn2[C@H]1C[C@H](O)[C@@H](CO)O1 [dA, deoxyadenosine] |  |  | 86% | 89% | 91% | 94% | 96% |  |
| Nc1ccn([C@H]2C[C@H](O)[C@@H](CO)O2)c(=O)n1 [dC, deoxycytidine] |  |  | 89% |  |  | 84% | 86% |  |
| Nc1nc2c(ncn2[C@H]2C[C@H](O)[C@@H](CO)O2)c(=O)[nH]1 [dG, deoxyguanosine] |  |  | 91% | 85% | 90% | 96% | 95% | Growth inhibition rate (%) on Bel-7402 ([4]; 48 hours): 87%; Growth inhibition rate (%) on Bel-7402 ([4]; 72 hours): 93% |

From patent publication US20140309188A1, “USE OF PHARMACEUTICAL COMPOSITION COMPRISING DEOXYNUCLEOSIDE AND NUCLEOSIDE FOR TREATMENT OF TUMOR” (priority 2011, published 2014)
